Test results reported in paper PMC8175309, “Translational CNS Steady-State Drug Disposition Model in Rats, Monkeys, and Humans for Quantitative Prediction of Brain-to-Plasma and Cerebrospinal Fluid-to-Plasma Unbound Concentration Ratios” (The AAPS Journal, 2021).
Like-named read-outs stand apart in the source and are kept apart here.

Assays:
[1] = cited from earlier work; for Kp,uu,brain Human: *3 ref Summerfield et al. (25)
[2] = cited from earlier work
[3] = target: MDR1 (Homo sapiens, UniProt P08183); test: in vitro; settings: dog, MDCK-MDR1, pH 7.4
MDR1, sequence (P08183 whole entry): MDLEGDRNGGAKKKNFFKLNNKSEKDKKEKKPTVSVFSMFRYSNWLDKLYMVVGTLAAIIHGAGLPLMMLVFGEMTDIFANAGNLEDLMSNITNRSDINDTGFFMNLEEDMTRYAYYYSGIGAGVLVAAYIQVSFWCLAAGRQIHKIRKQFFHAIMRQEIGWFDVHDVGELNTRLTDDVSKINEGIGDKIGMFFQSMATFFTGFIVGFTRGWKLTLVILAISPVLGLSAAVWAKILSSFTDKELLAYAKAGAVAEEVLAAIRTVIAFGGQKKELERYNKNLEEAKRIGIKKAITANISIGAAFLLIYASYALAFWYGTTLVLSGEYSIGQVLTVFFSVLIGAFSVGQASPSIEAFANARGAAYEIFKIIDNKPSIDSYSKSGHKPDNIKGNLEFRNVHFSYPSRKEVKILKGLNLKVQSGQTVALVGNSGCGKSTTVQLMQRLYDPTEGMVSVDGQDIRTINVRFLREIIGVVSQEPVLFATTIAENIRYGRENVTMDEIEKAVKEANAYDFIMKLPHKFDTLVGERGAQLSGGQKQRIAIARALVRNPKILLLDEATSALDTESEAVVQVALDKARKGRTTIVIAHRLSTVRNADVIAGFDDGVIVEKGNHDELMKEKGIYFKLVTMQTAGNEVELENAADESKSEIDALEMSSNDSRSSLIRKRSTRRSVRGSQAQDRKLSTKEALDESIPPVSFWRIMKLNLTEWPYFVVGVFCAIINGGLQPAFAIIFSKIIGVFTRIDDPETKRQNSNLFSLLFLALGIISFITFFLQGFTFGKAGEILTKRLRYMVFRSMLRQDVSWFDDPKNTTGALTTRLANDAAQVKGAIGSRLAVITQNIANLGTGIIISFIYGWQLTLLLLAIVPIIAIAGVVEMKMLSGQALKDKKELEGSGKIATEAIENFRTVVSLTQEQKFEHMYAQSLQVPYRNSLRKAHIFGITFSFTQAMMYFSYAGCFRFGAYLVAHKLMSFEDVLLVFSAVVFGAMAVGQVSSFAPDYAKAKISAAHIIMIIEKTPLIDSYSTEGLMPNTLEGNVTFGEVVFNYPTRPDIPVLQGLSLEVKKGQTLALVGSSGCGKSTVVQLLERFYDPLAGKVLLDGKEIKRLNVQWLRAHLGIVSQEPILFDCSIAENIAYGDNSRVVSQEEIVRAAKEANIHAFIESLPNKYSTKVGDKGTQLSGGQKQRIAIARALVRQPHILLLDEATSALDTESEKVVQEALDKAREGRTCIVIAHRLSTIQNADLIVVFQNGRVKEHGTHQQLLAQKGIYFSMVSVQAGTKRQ
Description: (§1) To the compounds available internally, in vitro efflux ratios for MDR1 and BCRP were determined by the following procedure (Supplemental Table 2). Test compound stock solutions in dimethyl sulfoxide (DMSO) were diluted in transport buffer (Hanks’ balanced salt solution (HBSS) with 10 mM HEPES, pH 7.4) to a concentration of 1 μM (DMSO < 1%) and applied to the apical or basolateral side of a cell monolayer derived from Madin-Darby canine kidney (MDCK)-MDR1 and MDCK-BCRP cells. Permeation of the test compounds from apical to basolateral (A to B) direction or B to A direction was measured in duplicate. The plate was incubated for 1 h in a CO2 incubator at 37±1°C with 5% CO2 at saturated humidity without shaking. In addition, the efflux ratio of each compound was also determined. Test and reference compounds were quantified by LC-MS/MS analysis based on the peak area ratio of analyte/internal standard.
(§2) The apparent permeability coefficient Papp (cm/s) was calculated by using Eq. 1: 1 Papp=dCr/dt×Vr/A×C0 where dCr/dt is the cumulative concentration of the compound in the receiver chamber as a function of time (μM/s); Vr is the volume of the solution in the receiver chamber (0.075 mL on the apical side, 0.25 mL on the basolateral side); A is the surface area for transport, i.e., 0.0804 cm^2 for the area of the monolayer; and C0 is the initial concentration (μM) in the donor chamber.
(§3) The efflux ratio was calculated using Eq. 2: 2 Efflux ratio=Papp,BtoA/Papp,AtoB

[4] = target: T1, BCRP (Homo sapiens, UniProt Q9UNQ0); test: Transcellular transport across MDCK-BCRP cell monolayers (efflux ratio); settings: dog, pH 7.4
T1 sequence (Q9UNQ0 1-655): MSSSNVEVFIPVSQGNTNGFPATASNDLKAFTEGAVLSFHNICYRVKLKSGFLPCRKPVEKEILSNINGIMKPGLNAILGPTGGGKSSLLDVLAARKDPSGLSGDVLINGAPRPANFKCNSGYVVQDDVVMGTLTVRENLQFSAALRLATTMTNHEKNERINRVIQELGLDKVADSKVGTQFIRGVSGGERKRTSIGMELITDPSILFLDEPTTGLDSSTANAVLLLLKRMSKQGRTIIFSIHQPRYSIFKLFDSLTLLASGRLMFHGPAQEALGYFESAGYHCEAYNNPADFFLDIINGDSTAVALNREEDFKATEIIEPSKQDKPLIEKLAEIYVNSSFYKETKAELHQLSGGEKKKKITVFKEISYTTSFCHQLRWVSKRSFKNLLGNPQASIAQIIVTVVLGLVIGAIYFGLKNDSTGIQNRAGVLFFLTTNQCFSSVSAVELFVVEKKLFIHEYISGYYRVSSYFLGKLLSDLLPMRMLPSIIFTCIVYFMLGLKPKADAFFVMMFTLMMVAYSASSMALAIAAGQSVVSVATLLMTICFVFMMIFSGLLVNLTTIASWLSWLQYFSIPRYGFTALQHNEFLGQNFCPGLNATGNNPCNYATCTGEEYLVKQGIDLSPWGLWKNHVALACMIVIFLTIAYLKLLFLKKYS
Description: as §1, §2, §3

[5] = in vivo; settings: for Kp uu at 6 h: cynomolgus monkey, in vivo
Description: Monkey experiments were conducted internally or at the Drug Safety Research Laboratories in Shin Nippon Biomedical Laboratories via consignment to Axcelead Drug Discovery Partners. […] Detailed dosage regimen for each compound is summarized in Supplemental Table 3. […] Each cassette was assigned to a separate group of monkeys. The vehicle was saline or a mixture of dimethylacetamide and 1,3-butanediol (1:1, v/v). At the end of the 6-h infusion or 1 h after intravenous bolus administration, the monkeys were anesthetized, and whole blood, CSF, and whole brain were collected. Blood was collected using the anticoagulant, heparin sodium, and immediately centrifuged; the plasma was transferred to polypropylene tubes. Then, ketamine hydrochloride (50 mg/mL; 0.2 mL/kg; 10 mg/kg) was intramuscularly administered. CSF was collected after lumbar puncture using a spinal needle (22–25G) and a syringe pre-wetted with 10% CHAPS solution to prevent adsorption of compounds to all the equipment during pretreatment. CSF samples were immediately centrifuged, and the supernatant layers were transferred to polypropylene tubes. […] After collecting the cerebellum, hippocampus, and cerebral cortex from the whole brain, these were washed with cold saline, weighed, and homogenized immediately in 4 volumes of ice-cold 100 mmol/L sodium phosphate buffer. All samples were stored at –80°C until analysis by LC-MS/MS. Each sample (50 μL) was mixed with the working solution (the mixture of dimethyl sulfoxide and acetonitrile (2:8, v/v)), and protein was precipitated by the addition of 150 μL acetonitrile containing the internal standards (5 ng/mL alprenolol and diclofenac). After centrifugation at 5,250 rpm and 4°C for 5 min, the supernatant (150 μL) was transferred to a polypropylene 96-well plate (Corning; Corning, NY, USA) and completely evaporated under a gentle stream of N2. The residue was reconstituted in dilution solution (mobile phase A/B (7:3, v/v)), and the supernatant was analyzed by LC-MS/MS.
Each sample (50 μL) was mixed with the working solution (the mixture of dimethyl sulfoxide and acetonitrile (2:8, v/v)), and the protein was precipitated by adding 150 μL acetonitrile containing internal standards (5 ng/mL alprenolol and diclofenac). After centrifugation at 5250 rpm and 4°C for 5 min, the supernatant (150 μL) was transferred to a polypropylene 96-well plate (Corning) and completely evaporated under a gentle stream of N2. The residue was reconstituted in mobile phase A/B (7:3, v/v)), and the supernatant was analyzed by LC-MS/MS. API5000 and QTRAP5500 (AB SCIEX, Framingham, MA, USA) equipped with Ultra-Fast Liquid Chromatography (Shimadzu, Kyoto, Japan) were used for determination of drug concentrations. Reversed-phase chromatography was performed using Shim-pack XR ODS (2.2 μm, 2.0×30 mm). Mobile phase A consisted of 10 mM ammonium formate with 0.2% formic acid, and mobile phase B contained acetonitrile with 0.2% formic acid. […] The mass spectrometer was operated in the positive ionization mode with multiple reaction monitoring (MRM). The MRM parameters (Q1 ion, Q3 ion, DP, EP, CE, and CXP) for monitoring the compounds are shown in Supplemental Table 4. Data acquisition and processing were performed using Analyst 1.6.2 (AB SCIEX, Framingham, MA, USA).
(§4) To perform correlation analyses between the observed Kp,uu,brain and Kp,uu,CSF, and the model-based prediction of Kp,uu,brain and Kp,uu,CSF, data from literature information were integrated into the internally obtained data for these assessments (Supplemental Table 2) ([17],[22]–[24],[27]–[33]). When only the total concentrations in plasma, CSF, and brain were available, the total concentration ratio in plasma to CSF or brain (Kp,CSF or Kp,brain, respectively) was estimated, followed by calculation of Kp,uu,CSF or Kp,uu,brain based on Eqs.

[6] = monkey, cited from earlier work
[7] = in vivo; settings: in vivo; for Kp uu: rat
Description: The CSF samples collected from cisterna magna in rats were stored at –80°C until analysis by liquid chromatography-tandem mass spectrometry (LC-MS/MS). Before performing the LC-MS/MS analysis, these samples were thawed on ice and mixed with three volumes of acetonitrile. The acetonitrile mixtures were vortexed and centrifuged, and the supernatant was collected. After dilution with mobile phase A (a mixture of 10 mM ammonium formate and formic acid at 100:0.2 (v/v)), the supernatant was injected into the LC-MS/MS system.
as §4

## COc1ccc2c(c1)c(CC(=O)O)c(C)n2C(=O)c1ccc(Cl)cc1 [Indomethacin]
[1]; *4 ref Friden et al. (21)
  Kp,uu,CSF Human: 0.27
[2]; *4 ref Friden et al. (21)
  Kp,uu,CSF Rat: 0.17
[3]
  efflux ratio at 1 h, 1 μM: 3.2
[4]
  efflux ratio at 1 h, 1 μM: 12

## Nc1c2c(nc3ccccc13)CCCC2 [Tacrine]
[1]; in vivo
  Kp,uu,CSF Human: 0.74
[2]; in vivo
  Kp,uu,CSF Rat: 0.67
[3]
  efflux ratio at 1 h, 1 μM: 1
[4]
  efflux ratio at 1 h, 1 μM: 1.1

## COc1cc2nc(N3CCN(C(=O)c4ccco4)CC3)nc(N)c2cc1OC [Prazosin]
[5]; Kp,uu,CSF Monkey
  Kp uu at 6 h: 0.289
[5]; Kp,uu,brain Monkey
  Kp uu at 6 h: 0.253
[3]
  efflux ratio at 1 h, 1 μM: 52
[4]
  efflux ratio at 1 h, 1 μM: 18

## CN(C)C(=O)C(CCN1CCC(O)(c2ccc(Cl)cc2)CC1)(c1ccccc1)c1ccccc1 [Loperamide]
[6]; *8 ref Uchida et al. (31)
  Kp,uu,brain Monkey: 0.04
[2]; *3 ref Summerfield et al. (25)
  Kp,uu,brain Rat: 0.024
[2]; *4 ref Friden et al. (21)
  Kp,uu,CSF Rat: 0.037
  Kp,uu,brain Rat: 0.007
[2]; *7 ref Kodaira et al. (20)
  Kp,uu,CSF Rat: 0.038
  Kp,uu,brain Rat: 0.00896
[3]
  efflux ratio at 1 h, 1 μM: 92
[4]
  efflux ratio at 1 h, 1 μM: 0.97

## Nc1nnc(-c2cccc(Cl)c2Cl)c(N)n1 [Lamotrigine]
[1]
  Kp,uu,brain Human: 2.80
[1]; *4 ref Friden et al. (21)
  Kp,uu,CSF Human: 1.1
[6]; *9 ref Nagaya et al. (19)
  Kp,uu,CSF Monkey: 0.875
  Kp,uu,brain Monkey: 0.678
[2]; *3 ref Summerfield et al. (25)
  Kp,uu,brain Rat: 1.40
[2]; *4 ref Friden et al. (21)
  Kp,uu,CSF Rat: 0.86

## NC(=O)N1c2ccccc2C=Cc2ccccc21 [Carbamazepine]
[1]
  Kp,uu,brain Human: 0.55
[1]; *10 ref Gatti et al. (28)
  Kp,uu,CSF Human: 1.00
[6]; *9 ref Nagaya et al. (19)
  Kp,uu,CSF Monkey: 1.19
  Kp,uu,brain Monkey: 1.27
[2]; *3 ref Summerfield et al. (25)
  Kp,uu,brain Rat: 0.39
[2]; *7 ref Kodaira et al. (20)
  Kp,uu,CSF Rat: 0.535
  Kp,uu,brain Rat: 0.771
[3]
  efflux ratio at 1 h, 1 μM: 1.3
[7]; Kp,uu,CSF Rat
  Kp uu: 0.752
[7]; Kp,uu,brain Rat
  Kp uu: 0.8
[4]
  efflux ratio at 1 h, 1 μM: 0.9

## COc1cc([C@@H]2c3cc4c(cc3[C@@H](O[C@@H]3O[C@@H]5CO[C@@H](C)O[C@H]5[C@H](O)[C@H]3O)[C@H]3COC(=O)[C@H]23)OCO4)cc(OC)c1O [Etoposide]
[3]
  efflux ratio at 1 h, 1 μM: 6.1
[4]
  efflux ratio at 1 h, 1 μM: 3.7

## CC1(C)O[C@@H]2[C@@H](CO[C@@]3(COS(N)(=O)=O)OC(C)(C)O[C@@H]23)O1 [Topiramate]
[1]; *4 ref Friden et al. (21)
  Kp,uu,CSF Human: 1
[2]; *4 ref Friden et al. (21)
  Kp,uu,CSF Rat: 0.63
  Kp,uu,brain Rat: 0.330
[3]
  efflux ratio at 1 h, 1 μM: 25
[4]
  efflux ratio at 1 h, 1 μM: 0.7

## CNC(=O)c1cc(Oc2ccc(NC(=O)Nc3ccc(Cl)c(C(F)(F)F)c3)cc2)ccn1 [Sorafenib]
[5]; monkey, lumbar CSF, *1 data internally obtained
  Kp,uu,CSF Monkey: 0.0798
[5]; monkey, *1 data internally obtained
  Kp,uu,brain Monkey: 0.0199
[7]
  Kp,uu,CSF Rat: 2.06
  Kp,uu,brain Rat: 0.0228
